Experimental data: US6451846B1, “Isocoumarin derivatives inhibiting angiogenesis” (Korea Research Institute of Bioscience and Biotechnology, priority 1999, dated 2002)
“Also recorded” adds a separate entry of the source.

Columns and labels:
[1] = system: human umbilical vein endothelial cells (HUVEC); assay: Inhibition of tube formation in human endothelial cells on Matrigel; assay type: cell-based; conditions: for inhibition at 0.5 µg/mL: 0.5 μg/ml; for inhibition at 1 µg/mL: 1.0 μg/ml
Excerpt: In order to determine the inhibitory effect of the isocoumarin derivatives against the angiogenesis, in vitro, endothelial cells, HUVEC (human umbilical vein endothelial cell) are selected. Under a specific culture condition, endothelial cells are migrated and differentiated into capillary tubes. Similar to the angiogenesis in vivo, the tube formation assay may be a good model to determine the influence of the isocoumarin derivatives on angiogenesis.
Various concentrations of the two isocoumarin derivatives are added to endothelial cells to monitor under a microscope whether the isocoumarin derivatives inhibited the differentiation of endothelial cells into capillary tubes. From this experiment, the two isocoumarin derivatives are found to inhibit the angiogenesis in concentration-dependent manners. […] However, the differentiation of HUVEC into a capillary tube is inhibited by 6,8-dihydroxy-4-acetyl-isocoumarin down to the concentration of as low as 0.2 μg/ml.
To determine the inhibitory effect of the two compounds obtained in Example 1 on the angiogenesis in vitro, human umbilical vein endothelial cells (HUVEC) were used as a model on the basis that they are migrated and differentiated into capillary tubes on Matrigel HUVEC was cultured in a gelatin-coated culture flask with an M199 medium supplemented with 20% FBS, 2 ng/ml bFGF and 100 μg/ml heparin at 37° C. incubator in a humidified atmosphere containing 5% CO2. The cultured HUVEC were treated with trypsin/EDTA to make a single cell suspension, the cells were plated on Matrigel coated 96-well plates with an M199 medium supplemented with 20% FBS, 2 ng/ml bFGF and 100 μg/ml heparin) at a density of 2×10^4 cells/well. The two compounds obtained in Example 1 were independently added at various concentrations into the wells and the plate was incubated for 18-48 hours in a CO2 incubator. The formation of capillary-like tube was monitored under a microscope during the incubation. The cells in the well containing vehicle (DMSO) became to be robuster and longer hollow tube networks as incubation time went on, but the tubes in the wells containing samples were broken and shortened. The inhibitory activity against tube formation was compared with control by measuring the length of the capillary tubes formed.

[2] = system: chorioallantoic membranes at 4.5-day old chick embryo; assay: Chorioallantoic membrane (CAM) assay, inhibition of angiogenesis in vivo; conditions: positive eggs/used eggs × 100%
Protocol: Chorioallantoic membrane (CAM) assay was used to measure whether the two isocoumarin derivatives are effective to inhibit angiogenesis in vivo. Fertilized chick eggs were kept in a humidified incubator at 37° C. After 3 days incubation, egg albumin were removed with hypodermic needle to allow CAM and yolk sac to drop away from the shell membrane. On day 3.5, the shell was punched out and removed to be a circular window and the shell membrane was removed. For testing of angiogenesis inhibition, a pieces of thermanox coverslip was coated with various concentration of the isocoumarin derivatives. The thermanox coverslip was placed on the chorioallantoic membranes at 4.5-day old chick embryo. After 2 days incubation at 37° C., 10% fat emulsion was injected into chorioallantois and observed blood vessel formation during an embryogenesis or development procedure. As a positive control, retinoic acid was used and non-treated coverslip for negative control.
Chorioallantoic membrane (CAM) assay was used to measure whether the two compounds obtained in Example 1 are effective to inhibit angiogenesis in vivo. Fertilized chick eggs were kept in a humidified incubator at 37° C. After 3 days incubation, about 2 ml of egg albumin were removed with hypodermic needle to allow CAM and yolk sac to drop away from the shell membrane. On day 3.5, the shell was punched out and removed to be a circular window and the shell membrane was removed. For testing of angiogenesis inhibition, a pieces of thermanox coverslip was coated with the isocoumarin derivatives dissolved in ethanol at concentration of 1, 5 and 10 μg/coverslip and the ethanol was evaporated. The thermanox coverslip were placed on the chorioallantoic membranes at 4.5-day old chick embryo. After 2 days incubation at 37° C., 1-2 ml of 10% fat emulsion was injected into chorioallantois and observed blood vessel formation during an embryogenesis or development procedure under a microscope. As a positive control, 1 μg/egg of retinoic acid was used and a negative control was non-treated. coverslip.

[3] = system: HUVEC; assay: Cytotoxicity to HUVEC; assay type: cell-based, human; conditions: same concentrations as in the angiogenesis inhibition
[4] = Acute toxicity test with rat; conditions: in vivo, 300 mg/kg; for Death and clinical symptoms / Toxic signs in weight change, serologic test, serobiochemical test, corpse examination: po; for LD50: rat, SD-rats, single oral administration, read-out: lethal dose (LD50)
Protocol: Specific pathogen-free (SPF) SD-rats (six weeks old) were used for the test of acute toxicity. Suspensions of the compounds of formulae 2 and 3 in 0.5% methyl cellulose were orally administered once at a dose of 300 mg/kg/10 ml to the rats. After the administration, the animals were observed as to their death, clinical symptoms and weight change, and serological and serobiochemically tested. An autopsy was made over the rats with the naked eye to observe whether their abdominal and thoracic organs were damaged. […] The compounds tested caused no toxic changes rats over the rats to the dose of 300 mg/lkg and thus, found to be safe compounds with a lethal dose (LD50) of at least 300 mg/kg when being administered via an oral route.

[5] = Homo sapiens, length of capillary tubes vs control, read-out: Inhibitory activity (%) against tube formation

SMILES | Lowest concentration still inhibiting differentiation of HUVEC into capillary tubes [1] [µg/mL] | inhibition at 0.05 µg/mL ([1]; Homo sapiens, 0.05 μg/ml, length of capillary tubes vs control, read-out: Inhibitory activity (%) against tube formation) [%] | inhibition at 0.2 µg/mL ([1]; Homo sapiens, 0.2 μg/ml, length of capillary tubes vs control, read-out: Inhibitory activity (%) against tube formation) [%] | inhibition at 0.5 µg/mL [1, 5] [%] | inhibition at 1 µg/mL [1, 5] [%] | Inhibition rate (%) ([2]; 1 μg/egg) | Inhibition rate (%) ([2]; 5 μg/egg) | Inhibition rate (%) ([2]; 10 μg/egg) | Cytotoxicity to HUVEC [3] | Death and clinical symptoms [4] | Toxic signs in weight change, serologic test, serobiochemical test, corpse examination [4] | LD50 [4] [mg/kg] | inhibition at 4 µg/mL ([1]; Homo sapiens, 4 μg/ml, length of capillary tubes vs control, read-out: Inhibitory activity (%) against tube formation) [%] | inhibition at 10 µg/mL ([1]; Homo sapiens, 10 μg/ml, length of capillary tubes vs control, read-out: Inhibitory activity (%) against tube formation) [%] | Inhibition rate (%) ([2]; 10 μg/egg, listed as 6,8-dihydroxy-4-(1-hydroxyetyl)-isocoumarin)
CC(=O)c1coc(=O)c2c(O)cc(O)cc12 [6,8-dihydroxy-4-acetyl-isocoumarin] | 0.2 | 0 | 50 | 85 | 100 | 50.0 | 83.3 | 93.3 | no cytotoxicity; also recorded: did not show cytotoxicity | Neither sudden death nor noticeable clinical symptoms were detected | no toxic signs were observed | ≥ 300 | – | – | –
CC1=C(/C=C/C(C)=C/C=C/C(C)=C/C(=O)O)C(C)(C)CCC1 [retinoic acid, reference compound] | – | – | – | – | – | 79.2 | – | – | – | – | – | – | – | – | –
CC(O)c1coc(=O)c2c(O)cc(O)cc12 (centres unmarked) [6,8-dihydroxy-4-(1-hydroxyethyl)-isocoumarin] | 4 | – | – | 0 | 0 | 27.3 | 66.7 | 83.3 | did not show cytotoxicity | Neither sudden death nor noticeable clinical symptoms were detected | no toxic signs were observed | ≥ 300 | 60 | 100 | 78.6
